In patent US8895503B2, “Pharmaceutical composition for transnasal administration of peptide hormones or cytokines” (Toray Industries, Inc., priority 2008, dated 2014):
Where no end group is shown, it is not given here.

Columns and labels:
[1] = Nasal administration of insulin with peptides of SEQ ID NOs:1 to 6 (Example 5); settings: for AAC: blood glucose reduction
Excerpt: The prepared solutions were subjected to the evaluation in the same manner as in Example 1.

[2] = Nasal administration of insulin with peptide to rats (Example 1); format: in vivo, rat; settings: male SD rats, insulin 10 IU/kg with 0.5 mM peptide or insulin only
Description: (§1) Male SD rats having a body weight of about 200 g were fasted for 24 hours and anesthetized by intraperitoneal injection of 50 mg/kg of pentobarbital, followed by incision of the cervical part to expose trachea. […] The tip of the tube to be inserted into the choanae was preliminarily tightly sealed with absorbent cotton and an adhesive. To prevent leakage of the drug solution, the nasopalatine duct in maxilla opening into the oral cavity was closed with a synthetic adhesive (Aron Alpha A; manufactured by Daiichi Sankyo Company, Limited).

[3] = Nasal administration of insulin, dependency on peptide concentration (Example 2); settings: rats, only insulin, no peptide
Description: as §1

[4] = rats, nasal, insulin 1 IU/kg with 0.5 mM L-amino acid peptide or no peptide
[5] = blood insulin, rats, nasal, insulin 1 IU/kg with 0.5 mM L-amino acid peptide or no peptide
[6] = male, SD, rat, in vivo, inhaled or intranasal

Compound | AAC [1, 4] | AUC [1, 5] | Cmax [1, 5] | PA (pharmaceutical availability, based on changes in blood glucose level) [1, 4] | Tmax [1, 6] | blood insulin level (FIG. 1) [2] | bioavailability (BA) of insulin ([2]; vs subcutaneous insulin) | Tmax [1, 5] | BA (bioavailability, based on changes in blood insulin level) [1, 4] | increase in the blood insulin level (FIG. 8) [1, 4] | bioavailability of insulin [3]
CC[C@H](C)[C@H](NC(=O)[C@H](CCCCN)NC(=O)[C@@H](NC(=O)[C@H](CCC(N)=O)NC(=O)[C@@H](N)CCCNC(=N)N)[C@@H](C)CC)C(=O)N[C@@H](Cc1c[nH]c2ccccc12)C(=O)N[C@@H](Cc1ccccc1)C(=O)N[C@@H](CCC(N)=O)C(=O)N[C@@H](CC(N)=O)C(=O)N[C@@H](CCCNC(=N)N)C(=O)N[C@@H](CCCNC(=N)N)C(=O)N[C@@H](CCSC)C(=O)N[C@@H](CCCCN)C(=O)N[C@@H](Cc1c[nH]c2ccccc12)C(=O)N[C@@H](CCCCN)C(=O)N[C@@H](CCCCN)C(=O)N[C@@H](CCCNC(=N)N)C(=O)N[C@@H](CCCNC(=N)N)C(=O)N[C@@H](CCCNC(=N)N)C(=O)N[C@@H](CCCNC(=N)N)C(=O)O [SEQ ID NO: 6] | 14.4 % glu. reduc. h | 55.2 μU · h./mL | 187.3 μU/mL | 15.7% | – | – | – | – | – | – | –
KKWKMRRNQFWIKIQR-OH [SEQ ID NO: 2] | 13.5 % glu. reduc. h | – | – | 14.7% | 11.7 min | – | – | – | – | – | –
KQIKIWFQNKKMKWKK-OH [SEQ ID NO: 4] | 10.3 % glu. reduc. h | – | – | 11.2% | 11.3 min | – | – | – | – | – | –
KQIRIWFQNKKMRWRR-OH [SEQ ID NO: 5] | 21.5 % glu. reduc. h | – | – | 23.4% | 16.0 min | – | – | – | – | – | –
RQIRIWFQNRRMRWRR-OH [SEQ ID NO: 3] | 17.1 % glu. reduc. h | – | – | 18.6% | 18.3 min | – | – | – | – | – | –
insulin [reference compound] | 4.3 % glu. reduc. h | 6.4 μU · h./mL | – | 4.7% | – | hardly exhibited increase in the blood insulin level | 0.8% | 10.8 min | 2.3% | could be hardly observed | 1.7%
